Assay results as given in patent US9616107B2, “Therapy for kidney disease and/or heart failure” (priority 2011, dated 2017).
Ends that are not written are not given here.

Legend:
[1] = Pharmacodynamic study of VD in canines: 10-day subcutaneous infusion in high-rate paced heart failure model; assay type: in vivo, canine; settings: dog, plasma; Day 10 of continuous vessel dilator infusion 100 ng/kg·min SC; Day 0 0.66+/−0.37; read-out: Pre-proANF (56-92) plasma concentration (radioimmunoassay)
Experimental: A pharmaceutical formulation of VD was prepared in a Tris buffer. 16.0 g glycerol, 6.05 g tris-(hydroxymethyl)-aminomethane (“Tris”), 2.50 g meta cresol were mixed in a 1.00 L volumetric flask. Approximately 900 mL nanopure water was added to the volumetric flask and the mixture was magnetically stirred to reach complete dissolution. 4 normal hydrochloric acid was used to adjust pH to 7.3 at 25° C. Then, the flask was filled to 1 L mark with nanopure water. The pH was rechecked and verified to be 7.3 at 25° C. The pH 7.3 Tris buffer was stored at 2-8° C. until use.
Lyophilized VD peptide (Bachem) was weighted into a glass vial and dissolved into a known volume of the Tris buffer to a concentration between 1 mg/mL and 10 mg/mL. The VD peptide was dissolved by gentle mixing and the solution was allowed to rest for between 20 and 30 minutes. The pH of the solution was checked and adjusted to 7.3 with 0.1 N sodium hydroxide. […]
Seven days prior to the beginning of HRP (Day −7), all dogs were instrumented for ventricular pacing with an IPG (implantable pulse generator) including an RA (right atrium) and RV (right ventricle) lead, and a DSI (Digital Sciences International) device in the femoral artery for arterial blood pressure monitoring. Glomerular filtration rate (GFR) was measured by iohexol clearance on the day before the beginning of HRP (Day −1). […]

[2] = assay type: physicochemical
Excerpt: Elliotts B® Solution is a sterile, non-pyrogenic, isotonic buffer that is approved by the United States Food and Drug Administration (FDA) for intrathecal administration of methotrexate sodium and cytarabine. Elliotts B® Solution will be used as a diluent for VD since it provides the appropriate isotonicity and pH attributes desired for SC administration. […] The detailed contents of Elliots B® Solution are provided in the Trial Dispensing Protocol. Storage conditions of the raw material, Elliotts B® Solution, as well as the reconstitution method will be supplied in a Pharmacy Guideline provided during the study.

With “EVVPPQVLSEPNEEAGAALSPLPEVPPWTGEVSPAQR [VD, Vessel Dilator]” the level at 240 h [1] was 41.1 ng/mL and the “stability and compatibility of VD in Elliotts B Solution” value [2] was “has been demonstrated”.
